Results published in PubChem BioAssay (NCI).
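All cell lines were grown in 96-well plates and treated with compound for 48 hours. GI50 marks 50% less growth. TGI denotes the concentration required for complete inhibition of growth.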

Experiments:
Assay in all cases: NCI tumour cell line growth inhibition, 48 h
A549 NSCLC = tested on: A549 NSCLC
OVCAR-3 ovarian = tested on: OVCAR-3 ovarian
OVCAR-8 ovarian = tested on: OVCAR-8 ovarian
SF-268 CNS = tested on: SF-268 CNS
UACC-257 melanoma = tested on: UACC-257 melanoma
U251 CNS = tested on: U251 CNS
TK-10 renal = tested on: TK-10 renal
OVCAR-5 ovarian = tested on: OVCAR-5 ovarian
NCI-H522 lung = tested on: NCI-H522 lung
MDA-MB-231 breast = tested on: MDA-MB-231 breast

Structure (SMILES) | TGI (A549 NSCLC) [µM] | TGI (OVCAR-3 ovarian) [µM] | TGI (OVCAR-8 ovarian) [µM] | GI50 (SF-268 CNS) [µM] | TGI (SF-268 CNS) [µM] | TGI (UACC-257 melanoma) [µM] | TGI (U251 CNS) [µM] | TGI (TK-10 renal) [µM] | TGI (OVCAR-5 ovarian) [µM] | TGI (NCI-H522 lung) [µM] | TGI (MDA-MB-231 breast) [µM] | GI50 (A549 NSCLC) [µM] | GI50 (OVCAR-3 ovarian) [µM] | GI50 (OVCAR-8 ovarian) [µM] | GI50 (UACC-257 melanoma) [µM] | GI50 (U251 CNS) [µM] | GI50 (TK-10 renal) [µM] | GI50 (OVCAR-5 ovarian) [µM] | GI50 (NCI-H522 lung) [µM] | GI50 (MDA-MB-231 breast) [µM]
[Cu+2].[O-]c1ccc2ccccc2c1N=Nc1ccccc1.[O-]c1ccc2ccccc2c1N=Nc1ccccc1 | > 100 | > 100 | > 100 | > 100 | > 100 | > 100 | > 100 | > 100 | > 100 | > 100 | > 100 | – | – | – | – | – | – | – | – | –
COc1cccc(/C=N\Nc2ccc([N+](=O)[O-])cn2)c1O | 46.3 | 12 | 15.6 | 2.58 | 23.8 | 20.6 | 19.8 | > 100 | 82.7 | 18.4 | 96.2 | 4.26 | 2.38 | 2.55 | 3.19 | 1.93 | 7.31 | 5.71 | 3.34 | 3.95
COc1ccc(C(O)CNC(=O)c2ccccc2)cc1 (stereo unspecified) | > 100 | > 100 | > 100 | – | > 100 | > 100 | > 100 | > 100 | > 100 | > 100 | > 100 | – | – | – | – | – | – | – | – | –
CCN(CC)CCOc1ccc(/C=C2\CC3C4CCC5=CC(=O)CC[C@]5(C)C4CC[C@]3(C)C2=O)cc1OC (stereo partly specified) | 58.3 | 5.07 | 18.2 | 2.34 | 5.62 | 11.1 | 8.39 | 5.59 | 17.4 | > 100 | 6.17 | 4.54 | 2.37 | 4.09 | 3.43 | 2.57 | 2.45 | 3.6 | 7.15 | 2.55
CCCN(CCC)c1ccc(CO)c(C)c1 | > 100 | > 100 | > 100 | 63.7 | > 100 | 67.3 | > 100 | 61 | 44.2 | 60.5 | > 100 | 83.3 | 23 | 27.4 | 11.6 | 74 | 13.8 | 13.1 | 19.3 | 77.4
CC(ONC(=O)c1cc(C(F)(F)F)cc(C(F)(F)F)c1)C(=O)Nc1ccc(Cl)cc1 (stereo unspecified) | > 41.3 | > 76.6 | > 62.1 | 5.2 | > 67.9 | 20.1 | > 50.5 | > 75.1 | 25.1 | 22.4 | 36.5 | 4.68 | 4.25 | 6.2 | 3.83 | 4.61 | 5.42 | 5.53 | 4.14 | 8.7
O=C(COc1cccc(/C=C2\COc3ccccc3C2=O)c1)Nc1nccs1 | 6.22 | 3.51 | 11.2 | 1.95 | 3.69 | 5.28 | 3.11 | 5.52 | 10.1 | 3.19 | 17 | 2.41 | 2.03 | 3.4 | 2.06 | 1.73 | 3.05 | 2.65 | 1.52 | 3.55
O=S1(=O)CCN(Cc2ccccn2)CC1 | > 100 | 9.94 | > 100 | – | > 100 | > 100 | > 100 | > 100 | > 100 | > 100 | > 100 | – | – | – | – | – | – | – | – | –
CC(=O)/C=C/C1=C(c2cc3ccccc3s2)c2ccccc2CC1 | > 100 | 45 | > 100 | 27.1 | > 100 | 59.7 | > 100 | > 100 | 67.9 | 72.2 | 88.2 | 33 | 19.4 | 39.4 | 24.4 | 39.6 | 61.1 | 27 | 26 | 26.2
Cn1c(COC(=O)N2CCCCC2)nc2c(N3CCOCC3)nc(-c3ccccc3)nc21 | 3.45 | 0.39 | 2.57 | 1.33 | 2.71 | 2.67 | 2.81 | 2.66 | 2.97 | 1.76 | 2.27 | 1.48 | 0.182 | 1.03 | 1.22 | 1.37 | 1.35 | 1.42 | 0.406 | 1.02
